According to US9756861B2, “Micro-colloidal silicic acid / boric acid composition and a method of preparing a bioenhancing solution and powder” (Barlaa B.V., priority 2009, dated 2017):

Test system: seeds of wheat
Protocol: Different levels of silicic acid were tested on seeds and in pot experiments to assess their effects on improvement of seed and the growth and yield in wheat.

silicic acid
plant growth and yield (0.25% and 0.50% silicic acid application, all the varieties of wheat): highest | rate of germination (silicic acid applied at 0.25-0.50% level, wheat seeds): increased
